# In US20100017900A1, “Prostate Epithelial Androgen Receptor Suppresses Prostate Growth and Tumor Invasion” (University of Rochester, priority 2006, published 2010):
# “Also recorded” adds a separate entry of the source.
# Assays:
# MMP-9 = MMP-9 enzyme (gelatinase) / zymography assay in PC3-AR9 cells; format: cell-based, human; details: for gelatinase activity of MMP-9: PC3-AR9 cells
# PC3-AR9 cells = test: Boyden chamber Matrigel invasion assay of PC3-AR9 cells; format: cell-based, human; details: Matrigel coated Boyden chambers
# Description: The invasion assays used Boyden chambers (Becton Dickinson) with […] inserts and 8 μm pores. Matrigel Matrix ([…] surface area) was placed in medium (1:5 dilution) on the inner layer of the invasion chamber and incubated at 37° C. for 30 min before adding the cells.
structure (smiles),measurement,setting,value
"C[C@]12CCC(=O)C[C@@H]1CC[C@@H]1[C@@H]2CC[C@]2(C)[C@@H](O)CC[C@@H]12 [DHT, dihydrotestosterone]",gelatinase activity of MMP-9,MMP-9; 1 nM DHT,suppress
same,invasion of PC3-AR9,"PC3-AR9 cells; in the presence of DHT, compared to PC3-v",decreased
CC(C)(O)C(=O)Nc1ccc([N+](=O)[O-])c(C(F)(F)F)c1 [HF],gelatinase activity of MMP-9,MMP-9; 1 μM HF added to 1 nM DHT,restore
same,invasion of PC3-AR9,PC3-AR9 cells; addition of HF to DHT,increased
CCCCCCCCCCCCCC(=O)O[C@@H]1[C@@H](C)[C@@]2(O)[C@@H](C=C(CO)C[C@]3(O)C(=O)C(C)=C[C@@H]23)[C@@H]2C(C)(C)[C@]12OC(C)=O [TPA],activity of MMP-9 (zymography),MMP-9; 10 nM TPA,increased; also recorded: enhanced
